Test results reported in US20220265712A1, “POPULATIONS OF NATURAL KILLER CELLS FOR TREATING CANCERS” (CELULARITY INC., priority 2019, published 2022).
Read-outs that look alike come from different tables or passages of the source.

What was measured:
CD34+ cells [1] = experiment: NK cell expansion from CD34+ cells cultured with CRL compounds (three-stage NK culture, Day 35); type: cell-based, human; details: 10 μM; for cell expansion, rank among all the compounds / expansion compared to SR1: Day 35; for expansion, differentiation and cytotoxicity profiles compared to SR1: PNK-007 culture; for expansion compared to SR1: SR1 10 μM positive control
Excerpt: (§1) UCB CD34+ cells were cultivated in presence of cytokines including thrombopoietin, SCF, Flt3 ligand, IL-7, IL-15 and IL-2 for 35 days to produce three-stage NK cells, as described in Example 1. Multi-color flow cytometry was used to determine the phenotypic characteristics of three-stage NK cells.
(§2) For biological testing, the compounds were provided to culture to evaluate their effects on NK cell expansion and differentiation. Specifically, donors of CD34+ cells (StemCell Technology) were thawed and expanded in vitro following NK culture protocol. During the first 14 days of the culture, each CRL compounds was dissolved in DMSO and added to the culture at 10 μM concentration. SR1 (at 10 μM) served as a positive control compound, while DMSO alone without any compound served as a negative control. At the end of the culture on Day 35, cell expansion, natural killer (NK) cell differentiation and cytotoxicity of the cells against K562 tumor cell line were characterized. Due to the large number of the compounds, the testing was performed in two experiments, CRL1-11 and CRL 12-22. The same donors were used for each experiment. Positive and negative controls were also included in both experiments.

CD34 cells = experiment: CD34 cell expansion at Day 14 of the culture; type: cell-based, human; details: 10 μM
Method: as §2

K562 tumor cells = experiment: Cytotoxicity assay of compound cultured cells against K562 tumor cells; type: cell-based; details: 10:1 effector to target ratio; both donors
Method: as §2
Cytotoxicity assay was run using compound cultured cells against K562 tumor cells at 10:1 effector to target ratio (FIG. 5) to evaluate cell functions.

CD34+ cells [2] = experiment: NK cell differentiation of compound cultured cells (flow cytometry); type: cell-based, human; details: compared to SR1
Excerpt: as §1, §2

NDMM patients = details: cited from earlier work

| Structure (SMILES) | cell expansion, rank among all the compounds (CD34+ cells [1]) | expansion, differentiation and cytotoxicity profiles compared to SR1 (CD34+ cells [1]) | CD34 cell expansion (CD34 cells) | expansion compared to SR1 (CD34+ cells [1]) | killing activities compared to cells cultured with SR1 (K562 tumor cells) | CD56+/CD11a+ subpopulation (CD34+ cells [2]) | also measured |
| --- | --- | --- | --- | --- | --- | --- | --- |
| Cc1cncc(-c2nc(NCCc3c[nH]c4ccccc34)c3occc3n2)c1 [CRL20, N-(2-(1H-indol-3-yl)ethyl)-2-(5-methylpyridin-3-yl)furo[3,2-d]pyrimidin-4-amine] | supported cell expansion the best | very similar expansion, differentiation and cytotoxicity profiles as SR1 | achieved the highest CD34 cell expansion |  |  |  |  |
| CC(C)c1csc2c(NCCc3c[nH]c4ccccc34)nc(-c3cncc(C#N)c3)nc12 [CRL17, 5-(4-((2-(1H-indol-3-yl)ethyl)amino)-7-isopropylthieno[3,2-d]pyrimidin-2-yl)nicotinonitrile] |  |  |  | slightly less expansion compared to SR1 | increased killing activities of the cells | increased CD56+/CD11a+ subpopulation |  |
| CC(C)c1csc2c(NCCc3c[nH]c4ccccc34)nc(-c3cncc(F)c3)nc12 [CRL18, N-(2-(1H-indol-3-yl)ethyl)-2-(5-fluoropyridin-3-yl)-7-isopropylthieno[3,2-d]pyrimidin-4-amine] |  |  |  | slightly less expansion compared to SR1 | increased killing activities of the cells | increased CD56+/CD11a+ subpopulation |  |
| Nc1cccc2c1CN(C1CCC(=O)NC1=O)C2=O (stereo not shown) [lenalidomide, 3-(4′ aminoisoindoline-1′-one)-1-piperidine-2,6-dione] |  |  |  |  |  |  | ORR (VGPR or better) (NDMM patients; 1 year post ASCT): 48%; ORR (VGPR or better) (NDMM patients; 2 year post ASCT): 36%; hazard ratio for TTP versus placebo (NDMM patients; 95% CI 0.46-0.71, p<0.0001): 0.57; median TTP (NDMM patients; 95% CI 44.2-73.3, not accounting for crossover): 57.3 months |
| Fc1cncc(-c2nc(NCCc3c[nH]c4ccccc34)c3occc3n2)c1 [CRL19, N-(2-(1H-indol-3-yl)ethyl)-2-(5-fluoropyridin-3-yl)furo[3,2-d]pyrimidin-4-amine] | supported cell expansion the best | very similar expansion, differentiation and cytotoxicity profiles as SR1 | achieved the highest CD34 cell expansion |  |  |  |  |
| N#Cc1cncc(-c2nc(NCCc3c[nH]c4ccccc34)c3occc3n2)c1 [CRL22, 5-(4-((2-(1H-indol-3-yl)ethyl)amino)furo[3,2-d]pyrimidin-2-yl)nicotinonitrile] | supported cell expansion the best | very similar expansion, differentiation and cytotoxicity profiles as SR1 | achieved the highest CD34 cell expansion |  |  |  |  |
| Cc1cncc(-c2nc(NCCc3c[nH]c4ccccc34)c3scc(C(C)C)c3n2)c1 [CRL21, N-(2-(1H-indol-3-yl)ethyl)-7-isopropyl-2-(5-methylpyridin-3-yl)thieno[3,2-d]pyrimidin-4-amine] |  |  |  | slightly less expansion compared to SR1 | increased killing activities of the cells | increased CD56+/CD11a+ subpopulation |  |
